Series [1] has as its system recombinant NL4-3 virus (Renilla luciferase) in MT-2 cells. The series is described as follows: HIV cell culture assay (antiviral activity, luciferase readout). The format is cell-based. As to conditions: Renilla, NL43. An outline of the steps:
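Antiviral EC50 was derived via the median effect equation from luciferase signal. The signal came from MT-2 cultures infected for 4–5 days with a nef-deleted, Renilla luciferase-expressing NL4-3 reporter virus (made in 293T cells) in the presence of compound dilutions.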

Series [2] is described as follows: Compound cytotoxicity, XTT-based colorimetric assay. The format is cell-based. As to conditions: human; uninfected MT2 cells, day 4, XTT. In a few lines:
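Run under the antiviral-assay protocol but without virus. Viability was read on day 4 and CC50 values were derived from the readout.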
Background: Tetrazolium assays rely on reduction of a dye to a coloured formazan, in cell work by metabolically active cells.

These results are taken from patent US11541055B2, “Inhibitors of human immunodeficiency virus replication” (ViiV Healthcare UK (No. 5) LIMITED, priority 2018, dated 2023).

A word on the EC50: it is the concentration needed to bring the measured effect to its halfway point. Broadly, the CC50 is the concentration at which the toxic effect on the cells reaches its halfway point. The low end stands for greater toxicity to the cells, the high end for lower toxicity to the cells. Take `Cc1ccc(F)c(-c2ccc3c(=O)n(-c4ccc(Cl)c5c(NS(=O)(=O)C6CC6)nn(CC(F)F)c45)c([C@H](Cc4cc(F)cc(F)c4)NC(=O)Cn4nc(C(F)F)c5c4C(F)(F)[C@@H]4C[C@H]54)nc3c2)n1` (atropisomer, axis not shown) [Example 96, N-[(1S)-1-{3-[4-chloro-3-cyclopropanesulfonamido-1-(2,2-difluoroethyl)-1H-indazol-7-yl]-7-(3-fluoro-6-methylpyridin-2-yl)-4-oxo-3,4-dihydroquinazolin-2-yl}-2-(3,5-difluorophenyl)ethyl]-2-[(2S,4R)-9-(difluoromethyl)-5,5-difluoro-7,8-diazatricyclo[4.3.0.0^2,^4]nona-1(6),8-dien-7-yl]acetamide]: the EC50 in series [1] came out at 0.24 nM. In addition, the cytotoxic concentration (CC50) at 4 days in series [2] was > 500 nM.
`Cc1ccc(-c2ccc3c(=O)n(-c4ccc(Cl)c5c(NS(C)(=O)=O)nn(C)c45)c([C@H](Cc4cc(F)cc(F)c4)NC(=O)Cn4nc(C(F)F)c5c4C(F)(F)[C@@H]4C[C@H]54)nc3c2)nn1` (atropisomer, axis not shown; (P)) [Example 50, N—((S)-1-((3P)-3-(4-chloro-1-methyl-3-(methylsulfonamido)-1H-indazol-7-yl)-7-(6-methylpyridazin-3-yl)-4-oxo-3,4-dihydroquinazolin-2-yl)-2-(3,5-difluorophenyl)ethyl)-2-((3bS,4aR)-3-(difluoromethyl)-5,5-difluoro-3b,4,4a,5-tetrahydro-1H-cyclopropa[3,4]cyclopenta[1,2-c]pyrazol-1-yl)acetamide]: the 50% effective concentration (EC50) in series [1] stood at 0.047 nM. Moreover, in series [2], the half-maximal cytotoxic concentration (CC50) at 4 days is > 500 nM.
In the same order, the values of `CC(C)(C)S(=O)(=O)c1ccccc1-c1ccc2c(=O)n(-c3ccc(Cl)c4c(NS(C)(=O)=O)nn(CC(F)F)c34)c([C@H](Cc3cc(F)cc(F)c3)NC(=O)Cn3nc(C(F)F)c4c3C(F)(F)[C@@H]3C[C@H]43)nc2c1` (atropisomer, axis not shown) [Example 130] are 0.13 nM and > 500 nM.
In the case of `COc1cnc(C)nc1-c1ccc2c(=O)n(-c3ccc(Cl)c4c(NS(C)(=O)=O)nn(C)c34)c([C@H](Cc3cc(F)cc(F)c3)NC(=O)Cn3nc(C(F)F)c4c3C(F)(F)[C@@H]3C[C@H]43)nc2c1` (atropisomer, axis not shown; (P)) [Example 9, N—((S)-1-((3P)-3-(4-chloro-1-methyl-3-(methylsulfonamido)-1H-indazol-7-yl)-7-(5-methoxy-2-methylpyrimidin-4-yl)-4-oxo-3,4-dihydroquinazolin-2-yl)-2-(3,5-difluorophenyl)ethyl)-2-((3bS,4aR)-3-(difluoromethyl)-5,5-difluoro-3b,4,4a,5-tetrahydro-1H-cyclopropa[3,4]cyclopenta[1,2-c]pyrazol-1-yl)acetamide], in series [1], the EC50 is 0.058 nM. In addition, the CC50 at 4 days in series [2] is > 500 nM.
The corresponding values for `Cc1nccc(-c2ccc3c(=O)n(-c4ccc(Cl)c5c(NS(C)(=O)=O)nn(CC(F)(F)F)c45)c([C@H](Cc4cc(F)cc(F)c4)NC(=O)Cn4nc(C(F)F)c5c4C(F)(F)[C@@H]4C[C@H]54)nc3c2)n1` (atropisomer, axis not shown) [Example 100, N-[(1S)-1-{3-[4-chloro-3-methanesulfonamido-1-(2,2,2-trifluoroethyl)-1H-indazol-7-yl]-7-(2-methylpyrimidin-4-yl)-4-oxo-3,4-dihydroquinazolin-2-yl}-2-(3,5-difluorophenyl)ethyl]-2-[(2S,4R)-9-(difluoromethyl)-5,5-difluoro-7,8-diazatricyclo[4.3.0.0^2,^4]nona-1(6),8-dien-7-yl]acetamide] are 0.042 nM and > 500 nM.
In the same order, the values of `Cc1ccc(F)c(-c2ccc3c(=O)n(-c4ccc(Cl)c5c(NS(C)(=O)=O)nn(CC(F)F)c45)c([C@H](Cc4cc(F)cc(F)c4)NC(=O)Cn4nc(C(F)F)c5c4C(F)(F)[C@@H]4C[C@H]54)nc3c2)n1` (atropisomer, axis not shown) [Example 122] are 0.08 nM and > 500 nM.
Take `Cc1ncc(-c2ccc3c(=O)n(-c4ccc(Cl)c5c(NS(=O)(=O)C6CC6)nn(CC(F)F)c45)c([C@H](Cc4cc(F)cc(F)c4)NC(=O)Cn4nc(C(F)F)c5c4C(F)(F)[C@@H]4C[C@H]54)nc3c2)s1` (atropisomer, axis not shown) [Example 97, N-[(1S)-1-{3-[4-chloro-3-cyclopropanesulfonamido-1-(2,2-difluoroethyl)-1H-indazol-7-yl]-7-(2-methyl-1,3-thiazol-5-yl)-4-oxo-3,4-dihydroquinazolin-2-yl}-2-(3,5-difluorophenyl)ethyl]-2-[(2S,4R)-9-(difluoromethyl)-5,5-difluoro-7,8-diazatricyclo[4.3.0.0^2,^4]nona-1(6),8-dien-7-yl]acetamide]: the EC50 in series [1] is 0.22 nM. For the same compound, the CC50 at 4 days in series [2] was > 500 nM.
Regarding `CS(=O)(=O)Nc1nn(CC(F)F)c2c(-n3c([C@H](Cc4cc(F)cc(F)c4)NC(=O)Cn4nc(C(F)F)c5c4C(F)(F)[C@@H]4C[C@H]54)nc4cc(-c5cccc(C(F)(F)F)n5)ccc4c3=O)ccc(Cl)c12` [Example 138, N-[(1S)-1-{3-[4-chloro-1-(2,2-difluoroethyl)-3-methanesulfonamido-1H-indazol-7-yl]-4-oxo-7-(trifluoromethyppyridin-2-yl]-3,4-dihydroquinazolin-2-yl}-2-(3,5-difluorophenyl)ethyl]-2-[(2S,4R)-9-(difluoromethyl)-5,5-difluoro-7,8-diazatricyclo[4.3.0.0^2,^4]nona-1(6),8-dien-7-yl]acetamide], in series [1], the EC50 was 0.079 nM. For the same compound, in series [2], the CC50 at 4 days is > 500 nM.
In the same order, the values of `Cc1ccnc(-c2ccc3c(=O)n(-c4ccc(Cl)c5c(NS(C)(=O)=O)nn(C)c45)c([C@H](Cc4cc(F)cc(F)c4)NC(=O)Cn4nc(C(F)F)c5c4C(F)(F)[C@@H]4C[C@H]54)nc3c2)c1` (atropisomer, axis not shown; (P)) [Example 2, N—((S)-1-((3P)-3-(4-chloro-1-methyl-3-(methylsulfonamido)-1H-indazol-7-yl)-7-(4-methylpyridin-2-yl)-4-oxo-3,4-dihydroquinazolin-2-yl)-2-(3,5-difluorophenyl)ethyl)-2-((3bS,4aR)-3-(difluoromethyl)-5,5-difluoro-3b,4,4a,5-tetrahydro-1H-cyclopropa[3,4]cyclopenta[1,2-c]pyrazol-1-yl)acetamide] are 0.059 nM and > 500 nM.
For the compound `COc1ccc(-c2ccc3c(=O)n(-c4ccc(Cl)c5c(NS(C)(=O)=O)nn(C)c45)c([C@H](Cc4cc(F)cc(F)c4)NC(=O)Cn4nc(C(F)F)c5c4C(F)(F)[C@@H]4C[C@H]54)nc3c2)nn1` (atropisomer, axis not shown; (P)) [Example 7, N—((S)-1-((3P)-3-(4-chloro-1-methyl-3-(methylsulfonamido)-1H-indazol-7-yl)-7-(6-methoxypyridazin-3-yl)-4-oxo-3,4-dihydroquinazolin-2-yl)-2-(3,5-difluorophenyl)ethyl)-2-((3bS,4aR)-3-(difluoromethyl)-5,5-difluoro-3b,4,4a,5-tetrahydro-1H-cyclopropa[3,4]cyclopenta[1,2-c]pyrazol-1-yl)acetamide], the concentration for a half-maximal effect (EC50) in series [1] stood at 0.053 nM. Moreover, in series [2], the CC50 at 4 days was > 500 nM.
The corresponding values for `Cn1nc(NS(C)(=O)=O)c2c(Cl)ccc(-n3c([C@H](Cc4cc(F)cc(F)c4)NC(=O)Cn4nc(C(F)F)c5c4C(F)(F)[C@@H]4C[C@H]54)nc4cc(-c5ccnnc5)ccc4c3=O)c21` (atropisomer, axis not shown; (P)) [Example 31, N—((S)-1-((3P)-3-(4-chloro-1-methyl-3-(methylsulfonamido)-1H-indazol-7-yl)-4-oxo-7-(pyridazin-4-yl)-3,4-dihydroquinazolin-2-yl)-2-(3,5-difluorophenyl)ethyl)-2-((3bS,4aR)-3-(difluoromethyl)-5,5-difluoro-3b,4,4a,5-tetrahydro-1H-cyclopropa[3,4]cyclopenta[1,2-c]pyrazol-1-yl)acetamide] are 0.29 nM and > 500 nM.
In the same order, the values of `COc1ncc(-c2ccc3c(=O)n(-c4ccc(Cl)c5c(NS(C)(=O)=O)nn(C)c45)c([C@H](Cc4cc(F)cc(F)c4)NC(=O)Cn4nc(C(F)F)c5c4C(F)(F)[C@@H]4C[C@H]54)nc3c2)cn1` (atropisomer, axis not shown; (P)) [Example 39, N—((S)-1-((3P)-3-(4-chloro-1-methyl-3-(methylsulfonamido)-1H-indazol-7-yl)-7-(2-methoxypyrimidin-5-yl)-4-oxo-3,4-dihydroquinazolin-2-yl)-2-(3,5-difluorophenyl)ethyl)-2-((3bS,4aR)-3-(difluoromethyl)-5,5-difluoro-3b,4,4a,5-tetrahydro-1H-cyclopropa[3,4]cyclopenta[1,2-c]pyrazol-1-yl)acetamide] are 0.042 nM and > 500 nM.
For `Cn1nc(NS(C)(=O)=O)c2c(Cl)ccc(-n3c([C@H](Cc4cc(F)cc(F)c4)NC(=O)Cn4nc(C(F)F)c5c4C(F)(F)[C@@H]4C[C@H]54)nc4cc(-c5ccccc5C(F)(F)F)ccc4c3=O)c21` (atropisomer, axis not shown; (P)) [Example 24, N—((S)-1-((3P)-3-(4-chloro-1-methyl-3-(methylsulfonamido)-1H-indazol-7-yl)-4-oxo-7-(2-(trifluoromethyl)phenyl)-3,4-dihydroquinazolin-2-yl)-2-(3,5-difluorophenyl)ethyl)-2-((3bS,4aR)-3-(difluoromethyl)-5,5-difluoro-3b,4,4a,5-tetrahydro-1H-cyclopropa[3,4]cyclopenta[1,2-c]pyrazol-1-yl)acetamide], the half-maximal effective concentration (EC50) in series [1] amounted to 0.84 nM. In series [2], the CC50 at 4 days was > 500 nM.
